The values that follow come from US8779140B2, “Crystal of fused pyridine compound salt” (Astellas Pharma Inc., priority 2010, dated 2014).

As usually defined, the Solubility is the dissolved amount per volume that the medium holds. Low values mean little dissolved substance, high ones much dissolved substance.

Series [1] can be described thus: Solubility test in 84% aqueous EtOH solution. Format: physicochemical. As to conditions: hydrobromide. As for the experimental part: After stirring, the supernatant was filtered and the concentration of the filtrate was quantified by means of HPLC.
HPLC; Columns to be charged: Unison UK Phenyl (manufactured by Imtakt Corporation), particle diameter 3 μm, 4.6 mm×250 mm
Mobile phase: perchlorate buffer at pH 2.5 (0.01 mol/L)^(note)/mixed solution with MeCN for LC (4:1),
Flow rate of mobile phase: about 1.0 mL/min. Detector: ultraviolet absorptiometer (wavelength for measurement: 235 nm), column temperature: 50° C. (column thermostat vessel was used)

Series [2] in a line: Stability test of crystals (storage at 70° C., 70° C./75% RH, Xe lamp; HPLC related substances and powder X-ray diffraction).
Protocol: A sample was stored with light-shielding under the condition of 70° C., 70° C.·75% RH for 2 weeks. The total amount of the related substance after storage was measured using HPLC, and the change in crystal forms was measured by means of powder X-ray diffraction.
The test drug was stored under the following conditions.
Initial (Stored under the cooling conditions): About 5 mg was collected with a 10 mL centrifuge tube and stored in a refrigerator.
70° C. (stored at 70° C.): About 5 mg was collected with a 10 mL centrifuge tube and stored in a mini-jet oven at 70° C. for 14 days.
70° C.·75% RH (stored at 70° C. and 75% relative humidity): About 5 mg was collected with a 10 mL centrifuge tube, a sample was put into a desiccator at 75% relative humidity in the open state, and the desiccator was stored in a mini jet oven at 70° C. for 14 days.
Xe lamp: This product was placed in a plastic Petri dish and stored for 40 hours under a Xe lamp (25° C. RH 60%, total irradiance 1,200,000 lx·h, total near-ultraviolet radiation energy 200 W·h/m^2 or more).
Initial, a product stored at 70° C. and a product stored at 70° C. and 75% RH were dissolved in a mixed solution (1:1) of MeCN for LC/water to exactly 10 mL, which was used as a sample solution.
HPLC; Detector: ultraviolet absorptiometer (wavelength measurement; 254 nm), column: Inertsil ODS-3 (particle diameter 3 μm, 2.1 mm×100 mm), column temperature: 40° C. (column thermostat vessel was used), mobile phase: Liquid A—1000 mL of water was added to perchlorate buffer at pH 2.5 {sodium perchlorate (NaClO4.H2O) (1.40 g) for dissolution, and adjusted to a pH of 2.5 with diluted perchloric acid (dilution of 100 mL of a commercially available 60% perchloric acid solution with 1900 mL of water)}. Liquid B—MeCN for LC, flow rate: 0.2 mL/min, Injection amount: 1 μL, (gradient setting: Liquid B 10% at 0.0 minutes to Liquid B 90% at 35 minutes).
Powder X-ray diffraction; tube: Cu, tube current: 300 mA, tube voltage, 50 kV, sampling width: 0.02°, scan speed: 4°/min, wavelength: 1.54056 angstroms, measured diffraction angle range (2θ): 2.5 to 40°

Consider `Br.NC(=O)c1cnc2[nH]ccc2c1N[C@@H]1[C@@H]2C[C@@H]3C[C@H]1C[C@@](O)(C3)C2` [Form A87, 4-{[(1R,2s,3S,5s,7s)-5-hydroxy-2-adamantyl]amino}-1H-pyrrolo[2,3-b]pyridine-5-carboxamide hydrobromide], for which the Solubility came to 36.8 mg/mL in series [1] (25° C.), 46.0 mg/mL in series [1] (35° C.) and 48.9 mg/mL in series [1] (50° C.). The “LC: total amount of the related substances” value (from here on “LC: total amount”) stood at 1.51% in series [2] (70° C. 75% RH, 2 weeks, Table 1, hydrobromide); 1.64% in series [2] (70° C., 2 weeks, Table 1, hydrobromide); 1.60% in series [2] (Initial (stored in a refrigerator), Table 1, hydrobromide); 1.32% in series [2] (Xe lump 40H, Table 1, hydrobromide). The “Physical stability / change in the crystal forms” value in series [2] (stored at 70° C. or 70° C.·75% RH for 2 weeks) is “physically stable”.

For `NC(=O)c1cnc2[nH]ccc2c1N[C@@H]1[C@@H]2CC3C[C@H]1C[C@@](O)(C3)C2` [anhydride in a free form, reference compound], the “Change of crystal on storage” value in series [2] (with humidity at 70° C.) is listed as “changed to hydrate”.

Take `Cl.NC(=O)c1cnc2[nH]ccc2c1N[C@@H]1[C@@H]2C[C@@H]3C[C@H]1C[C@@](O)(C3)C2.O` [Form A34, 4-{[(1R,2s,3S,5s,7s)-5-hydroxy-2-adamantyl]amino}-1H-pyrrolo[2,3-b]pyridine-5-carboxamide monohydrochloride hydrate]: the “LC: total amount” value in series [2] (70° C. 2 W, Table 3) is 0.10%; in series [2] (70° C. 75% RH 2 W, Table 3), 0.10%; in series [2] (Initial, Table 3), 0.10%; in series [2] (Xe lump 40H, Table 3), 0.30%.

Regarding `Cl.NC(=O)c1cnc2[nH]ccc2c1N[C@@H]1[C@@H]2C[C@@H]3C[C@H]1C[C@@](O)(C3)C2` [Form A33, 4-{[(1R,2s,3S,5s,7s)-5-hydroxy-2-adamantyl]amino}-1H-pyrrolo[2,3-b]pyridine-5-carboxamide monohydrochloride], the “LC: total amount” value in series [2] (70° C. 2 W, Table 3) is 0.48%; in series [2] (70° C. 75% RH 2 W, Table 3) it was 0.48%; in series [2] (Initial, Table 3), 0.49%; in series [2] (Xe lump 40H, Table 3), 0.79%.

On to `Br.NC(=O)c1cnc2[nH]ccc2c1N[C@@H]1[C@@H]2C[C@@H]3C[C@H]1C[C@@](O)(C3)C2` [Form A36, 4-{[(1R,2s,3S,5s,7s)-5-hydroxy-2-adamantyl]amino}-1H-pyrrolo[2,3-b]pyridine-5-carboxamide monohydrobromide], for which the “LC: total amount” value in series [2] (70° C. 75% RH, 2 weeks, Table 1, monohydrobromide) stood at 0.28%; in series [2] (70° C., 2 weeks, Table 1, monohydrobromide), 0.34%; in series [2] (Initial (stored in a refrigerator), Table 1, monohydrobromide) it was 0.43%; in series [2] (Xe lump 40H, Table 1, monohydrobromide), 0.76%.

On to `Br.NC(=O)c1cnc2[nH]ccc2c1N[C@@H]1[C@@H]2C[C@@H]3C[C@H]1C[C@@](O)(C3)C2` [hydrobromide, 4-{[(1R,2s,3S,5s,7s)-5-hydroxy-2-adamantyl]amino}-1H-pyrrolo[2,3-b]pyridine-5-carboxamide hydrobromide], for which, in series [2], the “Storage stability in a solid state” value is recorded as “excellent storage stability in a solid state”.

As for `NC(=O)c1cnc2[nH]ccc2c1N[C@@H]1[C@@H]2C[C@@H]3C[C@H]1C[C@@](O)(C3)C2.O=C(O)CCC(=O)O` [Form A24, 4-{[(1R,2s,3S,5s,7s)-5-hydroxy-2-adamantyl]amino}-1H-pyrrolo[2,3-b]pyridine-5-carboxamide succinate], the “LC: total amount” value came out at 0.19% in series [2] (70° C. 2 W, Table 3); 0.25% in series [2] (70° C. 75% RH 2 W, Table 3); 0.25% in series [2] (Initial, Table 3); 0.19% in series [2] (Xe lump 40H, Table 3).
